{"source": "patent US10881653B2", "about": "“Tricyclic compounds and their use in the treatment of cancer” (The United States of America, as represented by the …, priority 2015, dated 2021)", "key": {"MDA-MB-435": {"tested_on": "MDA-MB-435", "assay": "Cell growth inhibition GI50", "format": "cell-based", "settings": "Homo sapiens, Melanoma", "procedure": "(§1) Cell lines were plated 2000 cells/well in 96-well black optical plates in the presence of 10% FBS media containing 25 nM selenite. The following day cells were treated with various concentrations of the compound of Example 1 (0.1% DMSO final) and incubated for 72 hrs. After the incubation Cell-Quanti Blue reagent was added to each well and incubated for additional 3 hrs. Fluorescence was read ex:530 nm/em:590 nm, and percent of viability was determined using DMSO vehicle and no cell (blank) controls.\n(§2) Further results obtained in similar experiments were as indicated below (GI50 refers to concentration of compound yielding 50% growth inhibition; E denotes an exponent to the base 10)."}, "SNB-75": {"tested_on": "SNB-75", "assay": "Cell growth inhibition GI50", "format": "cell-based", "settings": "Homo sapiens, CNS Cancer", "procedure": "as §1, §2"}, "COLO 205": {"tested_on": "COLO 205", "assay": "Cell growth inhibition GI50", "format": "cell-based", "settings": "Homo sapiens, Colon Cancer", "procedure": "as §1, §2"}, "ACHN": {"tested_on": "ACHN", "assay": "Cell growth inhibition GI50", "format": "cell-based", "settings": "Homo sapiens, Renal Cancer", "procedure": "as §1, §2"}, "HS 5781": {"tested_on": "HS 5781", "assay": "Cell growth inhibition GI50", "format": "cell-based", "settings": "Breast Cancer", "procedure": "as §1, §2"}, "MCF7": {"tested_on": "MCF7", "assay": "Cell growth inhibition GI50", "format": "cell-based", "settings": "Homo sapiens, Breast Cancer", "procedure": "as §1, §2"}, "SK-MEL-28": {"tested_on": "SK-MEL-28", "assay": "Cell growth inhibition GI50", "format": "cell-based", "settings": "Homo sapiens, Melanoma", "procedure": "as §1, §2"}, "OVCAR-4": {"tested_on": "OVCAR-4", "assay": "Cell growth inhibition GI50", "format": "cell-based", "settings": "Homo sapiens, Ovarian Cancer", "procedure": "as §1, §2"}, "KM12": {"tested_on": "KM12", "assay": "Cell growth inhibition GI50", "format": "cell-based", "settings": "Homo sapiens, Colon Cancer", "procedure": "as §1, §2"}, "UO-31": {"tested_on": "UO-31", "assay": "Cell growth inhibition GI50", "format": "cell-based", "settings": "Homo sapiens, Renal Cancer", "procedure": "as §1, §2"}, "OVCAR-5": {"tested_on": "OVCAR-5", "assay": "Cell growth inhibition GI50", "format": "cell-based", "settings": "Homo sapiens, Ovarian Cancer", "procedure": "as §1, §2"}, "MALME-3M": {"tested_on": "MALME-3M", "assay": "Cell growth inhibition GI50", "format": "cell-based", "settings": "Homo sapiens, Melanoma", "procedure": "as §1, §2"}, "OVCAR-3": {"tested_on": "OVCAR-3", "assay": "Cell growth inhibition GI50", "format": "cell-based", "settings": "Homo sapiens, Ovarian Cancer", "procedure": "as §1, §2"}, "SF-539": {"tested_on": "SF-539", "assay": "Cell growth inhibition GI50", "format": "cell-based", "settings": "Homo sapiens, CNS Cancer", "procedure": "as §1, §2"}, "NCI-H322M": {"tested_on": "NCI-H322M", "assay": "Cell growth inhibition GI50", "format": "cell-based", "settings": "Homo sapiens, Non-Small Cell Lung Cancer", "procedure": "as §1, §2"}, "HT29": {"tested_on": "HT29", "assay": "Cell growth inhibition GI50", "format": "cell-based", "settings": "Homo sapiens, HT-29, Colon Cancer", "procedure": "as §1, §2"}, "NCI-H460": {"tested_on": "NCI-H460", "assay": "Cell growth inhibition GI50", "format": "cell-based", "settings": "Homo sapiens, Non-Small Cell Lung Cancer", "procedure": "as §1, §2"}, "NCI-H23": {"tested_on": "NCI-H23", "assay": "Cell growth inhibition GI50", "format": "cell-based", "settings": "Homo sapiens, Non-Small Cell Lung Cancer", "procedure": "as §1, §2"}, "SW-620": {"tested_on": "SW-620", "assay": "Cell growth inhibition GI50", "format": "cell-based", "settings": "Homo sapiens, Colon Cancer", "procedure": "as §1, §2"}, "NCI-H226": {"tested_on": "NCI-H226", "assay": "Cell growth inhibition GI50", "format": "cell-based", "settings": "Homo sapiens, Non-Small Cell Lung Cancer", "procedure": "as §1, §2"}, "MDA-N": {"tested_on": "MDA-N", "assay": "Cell growth inhibition GI50", "format": "cell-based", "settings": "Homo sapiens, Melanoma", "procedure": "as §1, §2"}, "CAKI-1": {"tested_on": "CAKI-1", "assay": "Cell growth inhibition GI50", "format": "cell-based", "settings": "Homo sapiens, Renal Cancer", "procedure": "as §1, §2"}, "DU-145": {"tested_on": "DU-145", "assay": "Cell growth inhibition GI50", "format": "cell-based", "settings": "Homo sapiens, Prostate Cancer", "procedure": "as §1, §2"}, "SR": {"tested_on": "SR", "assay": "Cell growth inhibition GI50", "format": "cell-based", "settings": "Homo sapiens, Leukemia", "procedure": "as §1, §2"}, "IGROV1": {"tested_on": "IGROV1", "assay": "Cell growth inhibition GI50", "format": "cell-based", "settings": "Homo sapiens, IGROV-1, Ovarian Cancer", "procedure": "as §1, §2"}, "RPMI-8226": {"tested_on": "RPMI-8226", "assay": "Cell growth inhibition GI50", "format": "cell-based", "settings": "Homo sapiens, Leukemia", "procedure": "as §1, §2"}, "HCT-116": {"tested_on": "HCT-116", "assay": "Cell growth inhibition GI50", "format": "cell-based", "settings": "Homo sapiens, Colon Cancer", "procedure": "as §1, §2"}, "RXF 393": {"tested_on": "RXF 393", "assay": "Cell growth inhibition GI50", "format": "cell-based", "settings": "Homo sapiens, Renal Cancer", "procedure": "as §1, §2"}, "SF-268": {"tested_on": "SF-268", "assay": "Cell growth inhibition GI50", "format": "cell-based", "settings": "Homo sapiens, CNS Cancer", "procedure": "as §1, §2"}, "MDA-MB-231/ATCC": {"tested_on": "MDA-MB-231/ATCC", "assay": "Cell growth inhibition GI50", "format": "cell-based", "settings": "Homo sapiens, Breast Cancer", "procedure": "as §1, §2"}, "A498": {"tested_on": "A498", "assay": "Cell growth inhibition GI50", "format": "cell-based", "settings": "Homo sapiens, Renal Cancer", "procedure": "as §1, §2"}, "MOLT-4": {"tested_on": "MOLT-4", "assay": "Cell growth inhibition GI50", "format": "cell-based", "settings": "Homo sapiens, Leukemia", "procedure": "as §1, §2"}, "[1]": {"target": "T1, gluthathione reductase (GR) (Homo sapiens, UniProt P00390)", "T1 sequence (P00390 44-522)": "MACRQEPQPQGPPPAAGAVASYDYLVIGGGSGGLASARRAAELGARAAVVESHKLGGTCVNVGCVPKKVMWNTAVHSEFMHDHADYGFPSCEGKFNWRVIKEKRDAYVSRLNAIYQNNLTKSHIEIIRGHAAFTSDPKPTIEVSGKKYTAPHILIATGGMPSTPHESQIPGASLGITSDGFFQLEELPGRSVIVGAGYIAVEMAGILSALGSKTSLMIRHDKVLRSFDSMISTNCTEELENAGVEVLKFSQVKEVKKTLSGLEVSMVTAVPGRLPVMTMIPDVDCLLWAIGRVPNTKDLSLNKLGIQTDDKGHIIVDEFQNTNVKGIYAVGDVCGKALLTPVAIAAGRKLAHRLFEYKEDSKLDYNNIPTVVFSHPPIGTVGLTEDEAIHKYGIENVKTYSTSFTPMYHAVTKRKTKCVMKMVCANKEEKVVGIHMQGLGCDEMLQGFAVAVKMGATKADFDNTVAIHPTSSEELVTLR", "assay": "Inhibition of recombinant GR (GSSG assay)", "format": "biochemical", "in_short": "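Human TrxR1 (15 nM) or GR (2 nM) preincubated 15 min with compound, 250 μM NADPH, 0.1 mg/ml BSA in 50 mM Tris pH 7.5, 2 mM EDTA, 1% DMSO. Reaction started with 2.5 mM DTNB (TrxR1, A412) or 1 mM GSSG (GR, A340). Percent activity relative to DMSO and no-enzyme blanks.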"}}, "note": "Counter-ions that a name gives are not always drawn."}
{"smiles": "O=C1C=C[C@H]2[C@@H]3C(=O)N(c4ccccc4)C(=O)[C@@H]3[C@@H]1N2Cc1ccccc1", "note": "(relative stereo) [Example 1, exo-11-Benzyl-4-phenyl-4,11-diazatricyclo[5.3.1.0^2,6]undec-9-ene-3,5,8-trione Trifluoroacetate]", "values": [{"measurement": "GI50", "setting": "MDA-MB-435", "value": 2.72, "unit": "µM"}, {"measurement": "GI50", "setting": "SNB-75", "value": 4.19, "unit": "µM"}, {"measurement": "GI50", "setting": "COLO 205", "value": 5.47, "unit": "µM"}, {"measurement": "GI50", "setting": "ACHN", "value": 3.36, "unit": "µM"}, {"measurement": "GI50", "setting": "HS 5781", "value": 3.51, "unit": "µM"}, {"measurement": "GI50", "setting": "MCF7", "value": 3.19, "unit": "µM"}, {"measurement": "GI50", "setting": "SK-MEL-28", "value": 3.01, "unit": "µM"}, {"measurement": "GI50", "setting": "OVCAR-4", "value": 5.53, "unit": "µM"}, {"measurement": "GI50", "setting": "KM12", "value": 2.56, "unit": "µM"}, {"measurement": "GI50", "setting": "UO-31", "value": 3.42, "unit": "µM"}, {"measurement": "GI50", "setting": "OVCAR-5", "value": 6.75, "unit": "µM"}, {"measurement": "GI50", "setting": "MALME-3M", "value": 4.62, "unit": "µM"}, {"measurement": "GI50", "setting": "OVCAR-3", "value": 3.44, "unit": "µM"}, {"measurement": "GI50", "setting": "SF-539", "value": 1.66, "unit": "µM"}, {"measurement": "GI50", "setting": "NCI-H322M", "value": 10.2, "unit": "µM"}, {"measurement": "GI50", "setting": "HT29", "value": 1.79, "unit": "µM"}, {"measurement": "GI50", "setting": "NCI-H460", "value": 3.49, "unit": "µM"}, {"measurement": "GI50", "setting": "NCI-H23", "value": 5.37, "unit": "µM"}, {"measurement": "GI50", "setting": "SW-620", "value": 1.86, "unit": "µM"}, {"measurement": "GI50", "setting": "NCI-H226", "value": 7.26, "unit": "µM"}, {"measurement": "GI50", "setting": "MDA-N", "value": 3.14, "unit": "µM"}, {"measurement": "GI50", "setting": "CAKI-1", "value": 4.09, "unit": "µM"}, {"measurement": "GI50", "setting": "DU-145", "value": 9.66, "unit": "µM"}, {"measurement": "GI50", "setting": "SR", "value": 1.87, "unit": "µM"}, {"measurement": "GI50", "setting": "IGROV1", "value": 4.81, "unit": "µM"}, {"measurement": "GI50", "setting": "RPMI-8226", "value": 1.59, "unit": "µM"}, {"measurement": "GI50", "setting": "HCT-116", "value": 1.56, "unit": "µM"}, {"measurement": "GI50", "setting": "RXF 393", "value": 2.42, "unit": "µM"}, {"measurement": "GI50", "setting": "SF-268", "value": 3.34, "unit": "µM"}, {"measurement": "GI50", "setting": "MDA-MB-231/ATCC", "value": 5.45, "unit": "µM"}, {"measurement": "GI50", "setting": "A498", "value": 8.57, "unit": "µM"}, {"measurement": "GI50", "setting": "MOLT-4", "value": 1.72, "unit": "µM"}, {"measurement": "IC50", "setting": "[1]; Biological Example 1, 2 nM GR, 250 μM NADPH, 15 minutes incubation", "value": "> 100", "unit": "µM"}, {"measurement": "IC50", "setting": "[1]; Biological Example 4, assays of Biological Example 1", "value": "> 100", "unit": "µM"}]}
